The results in this text go back to article PMC12516379, “Rotamer-Controlled Self-Immolative Linkers Enable Tunable Release of Neurosteroid Oxime Prodrugs” (ACS Medicinal Chemistry Letters, 2025).

Series [1] is described as follows: Stability in acetate buffer pH 5.0 at room temperature via HPLC (UV). It counts as physicochemical. In a few lines:
(§1)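 Progesterone prodrugs dissolved at 1 mg/mL in PBS (pH 7.03) or 10 mM acetate buffer (pH 5.0), kept at RT and reinjected over time, HPLC-UV AUC at 254 nm. Percent parent remaining; k from ln(%remaining) vs time, pseudo-first-order t1/2 = 0.693/k; duplicates averaged.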

The nature of series [2]: Formation of progesterone oxime 3 from prodrugs in human plasma at 37 °C over 2 h. Type of series: in vitro ADME. The settings on record: 2 h period. The method, then: Given the greater biological relevance of plasma, we focused on quantifying the formation of progesterone and allopregnanolone oxime in human plasma at 37 °C over a 2 h period. Results for selected progesterone prodrugs are presented in Figure A–C, illustrating the broad range of plasma cleavage rates as a function of promoiety design (see Figure S13 in Supporting Information for complete data set). Complete stability data for synthesized allopregnanolone prodrugs (Figures S18–S20) are provided in the Supporting Information. Given that their trends closely paralleled the progesterone series, they were not discussed in detail in the main text. […] This unexpected result prompted further investigation using computational modeling, described in the following section. […] Higher pK a values were associated with faster and more complete oxime formation, likely due to enhanced H-bonding which could stabilize the reactive syn-conformer. […] For the heterocyclic pyrrolidine and angle-strained series (Figure C), the release rates closely matched the experimentally determined prodrug half-lives (Table ), which were shorter in human plasma than in PBS. […] Although both 20s and 20t are capable of adopting the reactive syn-rotamer, their self-immolation reactivity diverged due to differences in linker geometry. The cyclopropane in 20s induces angle strain that hinders nucleophilic attack, rendering the compound stable under both PBS and plasma conditions. […] This intriguing result warrants further investigation, with follow-up studies currently in progress. Finally, the nucleophilic capacity of the amine tethers in prodrugs 20w–20z were evaluated based on their ability to cyclize in plasma, as detailed in the Supporting Information Figure S13.
1.2 Stability in Plasma and PBS via LCMS
Procaine (positive control) was purchased from Sigma-Aldrich. HPLC grade MeCN, MeOH, H2O, and FA were purchased from Fischer Scientific. Human plasma (cat. No. […]- […]
0102242) were obtained from BIOIVT. DPBS 1X (no calcium, no magnesium, pH = 7.03) was purchased from Thermo Fischer Scientific. Stock solutions were prepared in 100% DMSO, and suitable dilutions of target analytes were prepared in 0.1% FA /MeCN for method development.
For PBS assay Gibco® Dulbecco’s phosphate-buffered saline (DPBS 1X, no calcium, no magnesium, pH = 7.03) was utilized. All experiments were performed in duplicate and results are presented as the average of two experimental replicates.
Procedure for Plasma Stability Assay
Test compounds and positive control (i.e. procaine) were dissolved in DMSO to make a 10 mM stock solution and subsequently diluted to 500 μM in 50% MeCN and PBS. […] The supernatant was transferred to an LC-MS vial and analyzed by LC/MS-MS. […]

A short description of series [3]: Plasma stability assay at 37 °C via LC-MS/MS, human plasma.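 Also: prodrugs at 3 µM incubated in human plasma at 37 °C, intact prodrug quantified by LC-MS/MS over time, values are means of duplicate runs.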 Type of series: in vitro ADME.
Series [4] is described as follows: Stability in PBS at room temperature via HPLC (UV). As to conditions: phosphate-buffered saline (DPBS). It counts as physicochemical. In a few lines:
as §1

Series [5] can be described thus: Aqueous solubility by visual inspection in acetate buffer (pH 5). As to conditions: for solubility: sodium acetate buffer, pH 5, aqueous buffer, thermodynamic from solid.
Description: For the solubility assessment, acetate buffer (pH 5) was selected as the media of choice to ensure prodrug stability during analysis.
High aqueous solubility was determined by visual inspection of 5 mg solid material in 0.5 mL
sodium acetate buffer solution. This media was selected to ensure stability of prodrugs during
dissolution in 50 mg/mL aqueous media.
Series [6] is described as follows: PBS stability assay at 37 °C via LC-MS/MS. Type of series: physicochemical. The settings on record: 37 °C; for half-life at 3 µM: phosphate-buffered saline (DPBS), pH 7.03, PBS.
Description: To address this, prodrug stability was further evaluated in human plasma at 37 °C using liquid chromatography–tandem mass spectrometry (LC-MS/MS). For direct comparison, a parallel screen was conducted in PBS under identical conditions (Table ). To prevent premature degradation prior to LC-MS/MS analysis, acetonitrile containing formic acid was used as a quenching solution to acidify and stabilize the prodrugs in vials. […] This limitation in detection, along with the need for a more uniform and broadly applicable assessment across all compounds, prompted us to monitor the formation of the parent oxime as an alternative readout.
Stability experiments in human plasma and PBS were performed via liquid chromatography-tandem mass spectrometry (LC-MS/MS) to determine and compare rate of cleavage of progesterone prodrugs as well as selected allopregnanolone prodrugs (3 µM) when incubated at 37 °C. All experiments were performed in duplicate and results are presented as the average of two experimental replicates.
[7] abbreviates: pH 5, acetate buffer pH 5.0, RT, 1 mg/mL, HPLC 254 nm, read-out: t1/2 in acetate buffer at RT (Tables S5-S8) (converted).
Where [8] appears, read: pH 5, acetate buffer pH 5.0, rt, read-out: t½: pH 5.0, rt (Table S23) (converted).
[9] abbreviates: pH 7.03, DPBS pH 7.03, RT, 1 mg/mL, HPLC 254 nm, read-out: t1/2 in PBS buffer at RT (Tables S1-S4) (converted).
The mark [10] stands for this setting: pH 7.03, PBS, rt, read-out: t½: PBS, rt (Table S23) (converted).

What is called solubility is the concentration that dissolves in the medium under given conditions. The low end stands for a poorly soluble substance, the high end for a readily soluble substance.

For the molecule `C/C(=N\OC(=O)N(C)CC[C@@H]1CCCN1)[C@H]1CC[C@H]2[C@@H]3CCC4=CC(=O)CC[C@]4(C)[C@H]3CC[C@]12C.O=C(O)C(F)(F)F` [20n], the half-life at 1 mg/mL in series [1] (setting [7]) is more than 168 h; in series [1] (setting [8]), more than 168 h; in series [4] (setting [9]), more than 24 h; in series [4] (setting [10]) it was more than 24 h. Further, in series [2], the “Formation/release of oxime 3 in human plasma, in words” value was “low levels of oxime”. For the same molecule, in series [3] (3 µM, LC-MS/MS), the “t1/2 in human plasma at 37 °C (Tables S10-S13, S18)” value was “stable”. Further, the “Plasma, 37 °C %rem. at 2h (Table S23)” value in series [3] (2 h) is “stable”. Moreover, the half-life at 3 µM was more than 24 h in series [3] (human, plasma, read-out: Plasma, 37 °C t½ (Table S23) (converted)); 26.5 h in series [6] (3 µM, LC-MS/MS, read-out: t1/2 in PBS at 37 °C (Tables S14-S17) (converted)); 26.5 h in series [6] (read-out: PBS, 37 °C t½ (Table S23) (converted)). The molecule also had a solubility in series [5] of more than 10000 µg/mL. Further, the “PBS, 37 °C %rem. at 2h (Table S23)” value in series [6] (PBS, 2 h) is given as 77%.

Consider `CNCCN(CCN1CCCC1)C(=O)O/N=C(\C)[C@H]1CC[C@H]2[C@@H]3CCC4=CC(=O)CC[C@]4(C)[C@H]3CC[C@]12C.O=C(O)C(F)(F)F` [20h], for which the half-life at 1 mg/mL in series [1] (setting [7]) was 105 h; in series [1] (pH 5, acetate buffer pH 5.0, rt, HPLC (UV), read-out: Half-life (t½) pH 5.0 rt (converted)), 105 h; in series [1] (setting [8]) it was 105 h; in series [4] (setting [9]) it was 7.23 ± 1.9 h; in series [4] (pH 7.03, PBS, rt, HPLC (UV), read-out: Half-life (t½) PBS rt (converted)), 7.23 h; in series [4] (setting [10]) it was 7.23 h. The “Formation/release of oxime 3 in human plasma, in words” value in series [2] is “rapid, first-order release”. Also, in series [5] (sodium acetate buffer pH 5, rt, visual inspection), the “Solubility pH 5.0, rt” value is “degrades”. In series [5], this molecule came in with a solubility of less than 10000 µg/mL.
